Laboratory results as given in publication PMC12454639, “Direct disassembly of α-syn preformed fibrils into α-syn monomers by an all-D-peptide” (NPJ Parkinson's Disease, 2025).
Square brackets hold non-standard residues; d marks the D form. Peptide text beside a SMILES is read from it.

Tested on: small α-syn PFF
Test: 100 kDa MWCO size-based fractionation of small α-syn PFF followed by ELISA
Assay type: biochemical, Human
Settings: 200 nM PFF, 72 h, 37 °C, n = 3
Procedure: Fig. 4 SVD-1a disassembles small α-syn PFF seeds into α-syn monomers. Small α-syn PFF seeds were prepared as described previously. […] A and B Time-dependent DLS measurements with 200 nM small α-syn PFF seeds in the absence (A) and presence (B) of 500 nM SVD-1a. 1 ml sample was continuously measured in a sealed quartz cuvette at 37 °C under quiescent conditions every 60 s for 72 h in a SpectroSize 300 instrument (XtalConcepts, GE). Data are shown as a radius plot where the signal amplitude of each particle size is represented by the data point diameter. C One-phase exponential decay fit of “200 nM PFF + 500 nM SVD-1a” shown in (B). […] PFF and monomer samples that were incubated without SVD-1a served as controls. α-Syn was detected with the antibody Syn211. […] In the upper part of the blot, above the marker range, PFFs were detected, using a longer exposure time due to a weaker signal (see Supplementary Fig. 11 for the whole blot image with different exposure times). F Size-based fractionation by centrifugal concentration followed by ELISA quantification. […] After incubation, the samples were fractioned using a 100 kDa MWCO centrifugal concentrator (Merck, Microcon DNA Fast Flow 100 MWCO). α-Syn content of flow through (red) and retentate (blue) was quantified using an α-syn specific ELISA (BioLegend, Human α-Synuclein (Colorimetric), 448607). […]

SMILES: CC[C@@H](C)[C@@H](NC(=O)[C@@H](Cc1c[nH]cn1)NC(=O)[C@@H](CCC(=O)O)NC(=O)[C@@H](CCC(N)=O)NC(=O)[C@@H](Cc1c[nH]c2ccccc12)NC(=O)[C@@H](Cc1ccc(O)cc1)NC(=O)[C@H](NC(=O)[C@@H](CCC(=O)O)NC(=O)[C@@H](Cc1c[nH]cn1)NC(=O)[C@H](NC(=O)[C@H]1CCCN1C(=O)[C@@H](CC(C)C)NC(=O)[C@H](N)CCCNC(=N)N)[C@H](C)O)[C@H](C)O)C(=O)N[C@H](Cc1c[nH]c2ccccc12)C(=O)N[C@H](Cc1c[nH]cn1)C(=O)N[C@H](C)C(=O)N[C@H](CCCNC(=N)N)C(=O)N[C@H](CCCNC(=N)N)C(=O)N[C@H](CCCNC(=N)N)C(=O)N[C@H](CCCNC(=N)N)C(=O)N[C@H](CCCNC(=N)N)C(N)=O [SVD-1a] (H-[dR][dL][dP][dT][dH][dE][dT][dY][dW][dQ][dE][dH][dI][dW][dH][dA][dR][dR][dR][dR][dR]-NH2)
- α-syn fraction in retentate / eluate (increasing SVD-1a, 100 kDa MWCO, ELISA): concentration-dependent decrease of the α-syn fraction in the retentate—corresponding to small α-syn PFF—and an increase in the eluate
- α-syn distribution vs monomer control (1000 nM SVD-1a): shows the same distribution as the monomer control
